PMC2206373, “Identification of an altered peptide ligand based on the endogenously presented, rheumatoid arthritis-associated, human cartilage glycoprotein-39(263–275) epitope: an MHC anchor variant peptide for immune modulation” (Arthritis Research & Therapy, 2007)
Like-named read-outs stand apart in the source and are kept apart here. Non-standard residues stand in square brackets, D forms with d. Residues, ends and D or L forms follow the SMILES beside them. No end group written: not given here. Dip = N[C@H](C(=O)O)C(c1ccccc1)c1ccccc1; Tic = O=C(O)[C@@H]1Cc2ccccc2CN1

How the values were obtained:
[1] = tested on: popliteal lymph node cells from F265(Dip)-immunized HLA-DR4trg mice; test: Antigen-specific cytokine production of popliteal lymph node cells from F265(Dip)-immunized mice; format: cell-based, mouse; details: Figure 4b
Description: (§1) Mice, obtained from L Fugger (Oxford, UK), were immunized in the hind footpads with 2 × 50 μg of purified recombinant HC gp-39, with 2 × 100 μg of the WT peptide or with 2 × 100 μg of the APL (F265(Dip); compound 28; Figure 1) mixed in IFA. Seven days later, popliteal lymph node cell suspensions (1 to 2 × 10^5 cells/well) were stimulated in vitro with HC gp-39 (50, 10 or 2 μg/ml), HC gp-39(263–275) or APL (10, 2 and 0.4 μg/ml). At 96 h, 50 μl of culture medium was harvested for analysis of antigen-specific cytokine production using Luminex technology (mouse cytokine 18 Plex Panel, catalogue no. 171-F11181, Biorad, Bio-Rad Laboratories, Hercules, CA, USA). In addition, cultures were labelled with tritiated thymidine (for 18 h) and antigen-specific proliferation was determined. We state that all animal experimentation received ethics approval and animals were treated according to the recognized guidelines.

[2] = tested on: popliteal lymph node cells from F265(Dip)-immunized HLA-DR4trg mice; test: Antigen-specific proliferation of popliteal lymph node cells from F265(Dip)-immunized mice; format: cell-based, mouse; details: Figure 4b
Description: as §1

[3] = tested on: T cell hybridoma 5G11; test: T hybridoma 5G11 IL-2 response; format: cell-based, mouse; details: for Hybridoma response (SI) 5G11: IL-2 by ELISA after 48 h, peptide 10 μg/ml, SI > 2 positive; for Hybridoma response (SI) 5G11 / T hybridoma (SI) 5G11: DRB1*0401 BLCL as APC; for T hybridoma (SI) 5G11: Figure 1, IL-2 production, duplicate or triplicate, background 29,203 counts, ±30% of WT response = super/partial agonist
Description: (§2) The T cell hybridomas, provided by G Sonderstrup (Stanford, CA, USA), were generated as described. In brief, human CD4, HLA-DRA*101/HLA-DRB*0401 triple transgenic (HLA-DR4trg) mice (devoid of I-Aβ) were immunized in the footpad with 50 μg of purified HC gp-39 mixed in incomplete Freund's adjuvant (IFA). Draining lymph nodes were isolated and T-cell hybridomas were generated by polyethylene glycol fusion of primed and in vitro antigen-restimulated lymph node cells with the AKR BW5147 fusion partner. Following fusion, growth-positive hybridoma wells were screened for reactivity to HC gp-39 and a set of 55 peptides (16 amino acids in length) covering the entire HC gp-39 sequence. HLA-DR4(B1*0401)-restricted hybridomas responsive to both the HC gp-39 protein and the immunodominant epitope 263–275 of HC gp-39 (for example, 5G11, 8B12, 14G11 and 20H5) were cloned, subcloned, characterised and selected for further study.
(§3) HC gp-39-specific IL-2 production by T hybridomas was measured in wells of round-bottomed microtiter plates. Hybridoma cells (2 to 5 × 10^4) and irradiated APC (0.5 to 1 × 10^5; 12,000 to 16,000 RAD) from the B lymphoblastoid cell line (BLCL) carrying the DRB1*0401 specificity were incubated in 150 μl volumes. Antigen was added in 50 μl volumes to duplicate wells. After 48 h, 100 μl of the culture supernatant was assayed for IL-2 production using a sandwich ELISA with Pharmingen antibodies specific for mouse IL-2. The antigen sensitivity of the hybridomas to both peptide and protein was determined (Figure 2). […] In later assays, an excess of peptide or APL (10 μg/ml), inducing maximal responses in all hybridomas, was tested.

[4] = tested on: T cell hybridoma 20H5; test: T hybridoma 20H5 IL-2 response; format: cell-based, mouse; details: for Hybridoma response (SI) 20H5: IL-2 by ELISA after 48 h, peptide 10 μg/ml, DRB1*0401 BLCL as APC, SI > 2 positive
Description: as §2, §3

[5] = target: HLA-DR4(B1*0401) (Homo sapiens, UniProt P01903+P01911, A100K/A169T/F76Y/I96L/K127E/L162R/M171V/N62H/P40V/Q125Y/R42H/S133A/S149N/S66Y/V115G/V209L/W38E); test: HLA-DR4 competition peptide binding assay; details: competition with biotinylated HA307-319 (Y309F) 50 nM, purified HLA-DR4 30 nM, pH 5, 48 h, room temperature
Description: HLA-DR bound marker peptide was separated from free marker peptide and the amount of bound marker peptide was detected and quantified by enhanced chemoluminescense. Inhibition curves were generated and the IC50 was determined. The concentration of competitor peptide inducing 50% inhibition of marker peptide binding was determined, and expressed as the 50% inhibitory concentration (IC50 in μM).

[6] = tested on: T cell hybridoma 14G11; test: T hybridoma 14G11 IL-2 response; format: cell-based, mouse; details: for Hybridoma response (SI) 14G11: IL-2 by ELISA after 48 h, peptide 10 μg/ml, SI > 2 positive; for Hybridoma response (SI) 14G11 / T hybridoma (SI) 14G11: DRB1*0401 BLCL as APC; for T hybridoma (SI) 14G11: Figure 1, IL-2 production, duplicate or triplicate, background 7,152 counts, ±30% of WT response = super/partial agonist; for Hybridoma 14G11 activation (IL-2 production) in words: Figure 1 experiment, compared with WT peptide
Description: as §2, §3

[7] = tested on: T cell hybridoma 8B12; test: T hybridoma 8B12 IL-2 response; format: cell-based, mouse; details: for Hybridoma response (SI) 8B12: IL-2 by ELISA after 48 h, peptide 10 μg/ml, SI > 2 positive; for Hybridoma response (SI) 8B12 / T hybridoma (SI) 8B12: DRB1*0401 BLCL as APC; for T hybridoma (SI) 8B12: Figure 1, IL-2 production, duplicate or triplicate, background 16,288 counts, ±30% of WT response = super/partial agonist; for Hybridoma 8B12 activation (IL-2 production) in words: Figure 1 experiment, compared with WT peptide
Description: as §2, §3

[8] = tested on: popliteal lymph node cells from HC gp-39(263–275)-immunized huCD4, HLA-DR4 transgenic mice; test: Antigen-specific cytokine production of popliteal lymph node cells from WT peptide-immunized mice; format: cell-based, mouse; details: for Ex vivo recall IFNγ production in words / Ex vivo recall Mip1α production in words / Ex vivo recall RANTES production in words: Figure 4a, WT peptide-immunized HLA-DR4trg mice; for IFNγ concentration / MIP1α concentration / RANTES concentration: 96 h supernatant, Luminex
Description: as §1

[9] = tested on: popliteal lymph node cells from HC gp-39(263–275)-immunized huCD4, HLA-DR4 transgenic mice; test: Antigen-specific proliferation of popliteal lymph node cells from WT peptide-immunized mice; format: cell-based, mouse; details: for Ex vivo recall proliferative response in words: Figure 4a, WT peptide-immunized HLA-DR4trg mice; for Prol (SI): 96 h, tritiated thymidine, background 407 cpm, SI > 2 positive, SD not above 30%
Description: as §1

[10] = Table 1, background 8,147 counts, representative of at least three experiments
[11] = Table 1, background 35,749 counts, representative of at least three experiments
[12] = Table 1, geometric mean of two experiments, read-out: HLA-DR binding IC50
[13] = Table 1, background 8,598 counts, representative of at least three experiments
[14] = Table 1, background 7,470 counts, representative of at least three experiments
[15] = Figure 1, read-out: DRB1*0401 binding IC50

IC50 [5, 12] | IC50 [5, 15] | Molecule | In vitro recall IFNγ production in words [1] | In vitro recall Mip1α production in words [1] | In vitro recall RANTES production in words [1] | In vitro recall proliferative response in words [2] | Hybridoma response (SI) 5G11 [3, 10] | Hybridoma response (SI) 20H5 [4, 11] | Hybridoma response (SI) 14G11 [6, 13] | Hybridoma response (SI) 8B12 [7, 14] | T hybridoma (SI) 5G11 [3] | Ex vivo recall IFNγ production in words [8] | Ex vivo recall Mip1α production in words [8] | Ex vivo recall RANTES production in words [8] | T hybridoma (SI) 14G11 [6] | Hybridoma 14G11 activation (IL-2 production) in words [6] | T hybridoma (SI) 8B12 [7] | Hybridoma 8B12 activation (IL-2 production) in words [7] | Ex vivo recall proliferative response in words [9] | also measured
– | – | human cartilage glycoprotein-39 [HC gp-39 protein] | failed to induce significant levels | failed to induce significant levels | failed to induce significant levels | somewhat less | – | – | – | – | – | – | – | – | – | – | – | – | – | –
> 100000 nM | – | LASSETGVG [Compound 8] | – | – | – | – | 1 SI | 1 SI | 1 SI | 1 SI | – | – | – | – | – | – | – | – | – | –
– | 21 nM | CC(C)C[C@H](NC(=O)[C@@H](NC(=O)[C@@H]1Cc2ccccc2CN1C(=O)[C@H](CO)NC(=O)[C@@H](N)CCCNC(=N)N)[C@@H](C)O)C(=O)N[C@@H](C)C(=O)N[C@@H](CO)C(=O)N[C@@H](CO)C(=O)N[C@@H](CCC(=O)O)C(=O)N[C@H](C(=O)NCC(=O)N[C@H](C(=O)NCC(=O)O)C(C)C)[C@@H](C)O [Compound 27] (H-RS[Tic]TLASSETGVG-OH) | failed to induce significant levels | failed to induce significant levels | failed to induce significant levels | – | – | – | – | – | 12 SI | increased production | increased production | increased production | 21 SI | partial activation | 8 SI | partial activation | comparable proliferative responses | Hybridoma 5G11 activation (IL-2 production) in words ([3]; Figure 1 experiment, compared with WT peptide): partial activation
– | – | RSATLASSETGVG [Compound 12] | – | – | – | – | – | – | – | – | – | – | – | – | – | – | – | – | – | Recognition by hybridoma 5G11 in words ([3]; Table 2): not recognized; Hybridoma response (SI) 5G11 ([3]; Table 2, background 17,238 counts, SD not above 15%): 2 SI; IFNγ concentration ([8]; peptide 2 μg/ml): <5 pg/mL; MIP1α concentration ([8]; peptide 2 μg/ml): <24 pg/mL; RANTES concentration ([8]; peptide 2 μg/ml): <6 pg/mL; IFNγ concentration ([8]; peptide 10 μg/ml): <5 pg/mL; MIP1α concentration ([8]; peptide 10 μg/ml): 27 pg/mL; RANTES concentration ([8]; peptide 10 μg/ml): 9 pg/mL; Reactivity of hybridoma 20H5 in words ([4]; Table 2): only slightly affected; Hybridoma response (SI) 20H5 ([4]; Table 2, background 290,666 counts, SD not above 15%): 4 SI; IC50 ([5]; Table 2, read-out: HLA-DR binding IC50): > 35000 nM; Recognition by hybridoma 14G11 in words ([6]; Table 2): not recognized; Hybridoma response (SI) 14G11 ([6]; Table 2, background 10,131 counts, SD not above 15%): 2 SI; Reactivity of hybridoma 8B12 in words ([7]; Table 2): affected to a lesser extent; Hybridoma response (SI) 8B12 ([7]; Table 2, background 8,773 counts, SD not above 15%): 6 SI; Polyclonal response (proliferation and cytokine production) in words ([9]; Table 3, lymph node cells of WT peptide-immunized HLA-DR4trg mice): did not elicit a significant response; Prol (SI) ([9]; peptide 2 μg/ml): 1 SI; Prol (SI) ([9]; peptide 10 μg/ml): 3 SI
> 100000 nM | – | TLASSETGVG [Compound 7] | – | – | – | – | 1 SI | 5 SI | 1 SI | 1 SI | – | – | – | – | – | – | – | – | – | –
– | 10 nM | CC(C)C[C@H](NC(=O)[C@@H](NC(=O)[C@@H](NC(=O)[C@H](CO)NC(=O)[C@@H](N)CCCNC(=N)N)C(c1ccccc1)c1ccccc1)[C@@H](C)O)C(=O)N[C@@H](C)C(=O)N[C@@H](CO)C(=O)N[C@@H](CO)C(=O)N[C@@H](CCC(=O)O)C(=O)N[C@H](C(=O)NCC(=O)N[C@H](C(=O)NCC(=O)O)C(C)C)[C@@H](C)O [Compound 28] (H-RS[Dip]TLASSETGVG-OH) | barely detectable | barely detectable | barely detectable | good proliferative activity | – | – | – | – | 29 SI | lesser | unaltered | unaltered | 6 SI | partial activation | 5 SI | partial activation | comparable proliferative responses | –
